Structures can show the parent of a compound that is named as a salt.

One experiment concerns the target T1, human A3AR (Homo sapiens, UniProt P0DMS8).
T1 construct: expressed in transfected cells
T1 sequence (P0DMS8 1-318): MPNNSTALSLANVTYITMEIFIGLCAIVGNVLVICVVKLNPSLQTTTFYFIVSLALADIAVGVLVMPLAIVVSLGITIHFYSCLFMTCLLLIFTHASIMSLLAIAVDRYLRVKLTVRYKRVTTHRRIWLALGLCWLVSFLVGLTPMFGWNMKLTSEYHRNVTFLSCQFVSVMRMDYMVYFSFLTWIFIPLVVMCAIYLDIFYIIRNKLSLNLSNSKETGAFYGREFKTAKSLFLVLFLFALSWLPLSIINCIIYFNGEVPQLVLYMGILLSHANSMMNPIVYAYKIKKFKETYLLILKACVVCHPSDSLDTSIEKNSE
In words: LOPAC library primary screen: single concentration (10 μM) inhibition of 25 nM CA200645 binding, PHERAstar FS.
Conditions: not given
In the case of `CN1C[C@H](C(=O)N[C@]2(C)O[C@@]3(O)[C@@H]4CCCN4C(=O)[C@H](Cc4ccccc4)N3C2=O)C[C@@H]2c3cccc4[nH]cc(c34)C[C@H]21` [Dihydroergotamine methanesulfonate], the “% 25 nM CA200645 binding” value was 99.2 ± 11.1%. For the compound `CC(C)[C@H]1CN[C@H](C(=O)O)[C@H]1CC(=O)O` [Dihydrokainic acid], the “% 25 nM CA200645 binding” value turned out to be 92.4 ± 30.0%. Still for that read-out and setting: with `C[C@@H]1O[C@@H](O[C@H]2C[C@@H](O)[C@]3(CO)[C@H]4[C@H](O)C[C@]5(C)[C@@H]([C@@H]6COC(=O)C6)CC[C@]5(O)[C@@H]4CC[C@]3(O)C2)[C@H](O)[C@H](O)[C@H]1O` [Dihydroouabain] the figure was 102.4 ± 11.9%. The same measure, in the same setting: next, `COc1ccc([C@@H]2Sc3ccccc3N(CCN(C)C)C(=O)[C@@H]2OC(C)=O)cc1` [Diltiazem hydrochloride]: 97.4 ± 8.9%; `c1ccc2c(c1)[I+]c1ccccc1-2` [Diphenyleneiodonium chloride]: 92.7 ± 5.6%; `CCCN(CCC)CCc1ccc(O)c(O)c1` [Dipropyldopamine hydrobromide]: 101.8 ± 8.0%.

For the compound `OCCN(CCO)c1nc(N2CCCCC2)c2nc(N(CCO)CCO)nc(N3CCCCC3)c2n1` [Dipyridamole], the “% 25 nM CA200645 binding” value was 78.8 ± 14.8%. Turning to `CC(C)N(CCC(C(N)=O)(c1ccccc1)c1ccccn1)C(C)C` (stereo not shown) [Disopyramide phosphate], the “% 25 nM CA200645 binding” value turned out to be 98.5 ± 7.6%. In the case of `CC(C)N(CCC(C(N)=O)(c1ccccc1)c1ccccn1)C(C)C` (stereo not shown) [Disopyramide], the “% 25 nM CA200645 binding” value is listed as 78.9 ± 27.0%. For `CC(CCc1ccc(O)cc1)NCCc1ccc(O)c(O)c1` (stereo not shown) [Dobutamine hydrochloride], the “% 25 nM CA200645 binding” value amounted to 101.9 ± 15.9%. Consider `O=c1[nH]c2ccccc2n1CCCN1CCC(n2c(=O)[nH]c3cc(Cl)ccc32)CC1` [Domperidone], for which the “% 25 nM CA200645 binding” value is given as 99.6 ± 10.5%.

Regarding `NCCc1ccc(O)c(O)c1` [Dopamine hydrochloride], the “% 25 nM CA200645 binding” value came out at 93.0 ± 11.1%. Turning to `CN(C)CCC=C1c2ccccc2COc2ccccc21` [Doxepin hydrochloride], the “% 25 nM CA200645 binding” value stood at 110.0 ± 13.2%.

For the compound `CN(C)CCOC(C)(c1ccccc1)c1ccccn1` (stereo not shown) [Doxylamine succinate], the “% 25 nM CA200645 binding” value worked out at 107.4 ± 0.7%. Regarding `O=C(CCCN1CC=C(n2c(=O)[nH]c3ccccc32)CC1)c1ccc(F)cc1` [Droperidol], the “% 25 nM CA200645 binding” value amounted to 101.2 ± 18.5%.

As for `Cc1cc(Cl)ccc1OCCCC(=O)NO` [Droxinostat], the “% 25 nM CA200645 binding” value is reported as 96.3 ± 1.9%. Same read-out and setting: next, `CCOC(=O)C1=C(O)C(=O)N(Cc2ccccc2)C1` [EBPC]: 98.2 ± 13.5%; `CCCCCCCCCCCCCCCCCCOCC(COP(=O)([O-])OCC[N+](C)(C)C)OC` (stereo not shown) [ET-18-OCH3]: 80.6 ± 4.5%.

With `CC[N+](C)(C)c1cccc(O)c1` [Edrophonium chloride], the “% 25 nM CA200645 binding” value amounted to 88.1 ± 20.0%.

Take `CN1CCC[C@@H]1Cc1c[nH]c2ccc(CCS(=O)(=O)c3ccccc3)cc12` [Eletriptan hydrobromide]: the “% 25 nM CA200645 binding” value amounted to 96.9 ± 5.3%. Still for that read-out and setting: next, `Cc1c2ccncc2c(C)c2c1[nH]c1ccccc12` [Ellipticine]: 78.2 ± 23.8%; `CC[C@H]1CN2CCc3cc(OC)c(OC)cc3[C@@H]2C[C@@H]1C[C@H]1NCCc2cc(OC)c(OC)cc21` [Emetine dihydrochloride hydrate]: 102.7 ± 9.1%; `Cc1cc(O)c2c(c1)C(=O)c1cc(O)cc(O)c1C2=O` [Emodin]: 52.8± 4.4%. As to `C[C@H](N[C@@H](CCc1ccccc1)C(=O)O)C(=O)N1CCC[C@H]1C(=O)O.O.O` [Enalaprilat dihydrate], the “% 25 nM CA200645 binding” value is listed as 95.6 ± 2.1%. Still for that read-out and setting: with `CSc1ccc(C(=O)c2[nH]c(=O)[nH]c2C)cc1` [Enoximone] the figure was 102.3 ± 5.2%. The same measure, in the same setting: next, `CC(C)C[C@H](NC(=O)[C@H](O)[C@H](N)Cc1ccccc1)C(=O)O` [Epibestatin hydrochloride]: 102.9 ± 13.0%.

Consider `NC1=NCC2c3ccccc3Cc3ccccc3N12` (stereo not shown) [Epinastine hydrochloride], for which the “% 25 nM CA200645 binding” value was 96.6 ± 14.2%. On to `CCCCc1ncc(/C=C(\Cc2cccs2)C(=O)O)n1Cc1ccc(C(=O)O)cc1` [Eprosartan mesylate], for which the “% 25 nM CA200645 binding” value stood at 97.5 ± 15.0%.

With `COc1ccc2[n-]c([S@@+]([O-])Cc3ncc(C)c(OC)c3C)nc2c1.COc1ccc2[n-]c([S@@+]([O-])Cc3ncc(C)c(OC)c3C)nc2c1.O.O.[Mg+2]` [Esomeprazole magnesium dihydrate], the “% 25 nM CA200645 binding” value came to 81.5 ± 16.8%.

With `C[C@]12CC[C@@H]3c4ccc(O)cc4CC[C@H]3[C@@H]1CCC2=O` [Estrone], the “% 25 nM CA200645 binding” value was found to be 91.0 ± 8.5%. `CCN(CC)C(C)CN1c2ccccc2Sc2ccccc21` (stereo not shown) [Ethopropazine hydrochloride]: the “% 25 nM CA200645 binding” value turned out to be 108.3 ± 15.2%. In the case of `CCC1(C)CC(=O)NC1=O` (stereo not shown) [Ethosuximide], the “% 25 nM CA200645 binding” value was 88.4 ± 5.5%.

In the case of `CCc1cccc2c3c([nH]c12)C(CC)(CC(=O)O)OCC3` (stereo not shown) [Etodolac], the “% 25 nM CA200645 binding” value worked out at 97.1 ± 13.7%. As to `COc1ccc(-c2cc(=O)c3c(O)c(OC)c(OC)cc3o2)cc1O` [Eupatorin], the “% 25 nM CA200645 binding” value was determined as 47.2 ± 12.7%.

Regarding `Clc1ccc(N2CCN(Cc3cc4ccccn4n3)CC2)cc1` [FAUC 213], the “% 25 nM CA200645 binding” value came to 76.8 ± 3.4%. For the compound `COC(=O)c1c(C)[nH]c(C)c1C(=O)c1ccccc1Cc1ccccc1` [FPL 64176], the “% 25 nM CA200645 binding” value is 74.2 ± 6.7%.

On to `CCCn1c(=O)c2[nH]c(C3CCCC3)nc2n(CCCOC(=O)c2ccc(S(=O)(=O)F)cc2)c1=O` [FSCPX, reference compound], for which the “% 25 nM CA200645 binding” value was 57.1 ± 9.1%. With `CC(=O)OCC(CCn1cnc2cnc(N)nc21)COC(C)=O` [Famciclovir], the “% 25 nM CA200645 binding” value came to 104.8 ± 9.2%. Same read-out and setting: next, `NC(=O)OCC(COC(N)=O)c1ccccc1` [Felbamate]: 98.7 ± 4.1%.

Turning to `CCOC(=O)C1=C(C)NC(C)=C(C(=O)OC)C1c1cccc(Cl)c1Cl` (stereo not shown) [Felodipine], the “% 25 nM CA200645 binding” value turned out to be 79.1 ± 13.7%. Same read-out and setting: with `CN1CC(=O)NC1=NC(=O)Nc1cccc(Cl)c1` [Fenobam] the figure was 81.9 ± 15.0%; with `CC(C)OC(=O)C(C)(C)Oc1ccc(C(=O)c2ccc(Cl)cc2)cc1` [Fenofibrate], 87.6 ± 17.1%. Take `Oc1ccc(C2CNCCc3c2cc(O)c(O)c3Cl)cc1` (stereo not shown) [Fenoldopam bromide]: the “% 25 nM CA200645 binding” value was 90.6 ± 5.5%.

For `O=C1NCC2(CCN(CCc3ccccc3)CC2)O1` [Fenspiride hydrochloride], the “% 25 nM CA200645 binding” value is 81.2 ± 5.0%. Turning to `CC(C)(C(=O)O)c1ccc(C(O)CCCN2CCC(C(O)(c3ccccc3)c3ccccc3)CC2)cc1` (stereo not shown) [Fexofenadine hydrochloride], the “% 25 nM CA200645 binding” value was 93.9 ± 3.6%. The same measure, in the same setting: next, `Fc1ccc(C(c2ccc(F)cc2)N2CCN(C/C=C/c3ccccc3)CC2)cc1` [Flunarizine dihydrochloride]: 102.1 ± 8.8%; `CNCCC(Oc1ccc(C(F)(F)F)cc1)c1ccccc1` (stereo not shown) [Fluoxetine hydrochloride]: 102.9 ± 7.1%.

For `OCCN1CCN(CCCN2c3ccccc3Sc3ccc(C(F)(F)F)cc32)CC1` [Fluphenazine dihydrochloride], the “% 25 nM CA200645 binding” value is recorded as 98.1 ± 12.0%. Consider `CCOC(=O)Nc1ccc(NCc2ccc(F)cc2)nc1N` [Flupirtine maleate], for which the “% 25 nM CA200645 binding” value was 75.3 ± 9.1%. For the compound `O=C1NCN(c2ccccc2)C12CCN(CCCC(c1ccc(F)cc1)c1ccc(F)cc1)CC2` [Fluspirilene], the “% 25 nM CA200645 binding” value was 94.5 ± 10.0%.

For the compound `CC(C)C(=O)Nc1ccc([N+](=O)[O-])c(C(F)(F)F)c1` [Flutamide], the “% 25 nM CA200645 binding” value came to 84.4 ± 23.0%. For the compound `COCCCC/C(=N\OCCN)c1ccc(C(F)(F)F)cc1` [Fluvoxamine maleate], the “% 25 nM CA200645 binding” value was 100.9 ± 16.7%.

As to `C=C[C@@]1(C)CC(=O)[C@]2(O)[C@@]3(C)[C@@H](O)CCC(C)(C)[C@@H]3[C@H](O)[C@H](OC(C)=O)[C@@]2(C)O1` [Forskolin], the “% 25 nM CA200645 binding” value amounted to 100.9 ± 7.2%. With `C[C@]12CC[C@@H]3c4ccc(O)cc4C[C@@H](CCCCCCCCC[S+]([O-])CCCC(F)(F)C(F)(F)F)[C@H]3[C@@H]1CC[C@@H]2O` (stereo partly shown) [Fulvestrant], the “% 25 nM CA200645 binding” value was 100.4 ± 12.1%. On to `O=C([O-])c1cc2cc(Cc3cccnc3)ccc2o1.[Na+]` [Furegrelate sodium], for which the “% 25 nM CA200645 binding” value is 89.9 ± 4.6%.

Regarding `NS(=O)(=O)c1cc(C(=O)O)c(NCc2ccco2)cc1Cl` [Furosemide], the “% 25 nM CA200645 binding” value is recorded as 95.7 ± 5.9%.

The experiment is the same for the next values; noted with them: % of 25 nM CA200645 binding in the presence of 10 μM compound, LOPAC full screen, A3AR CHO cells.
On to `CCCn1c(=O)c2[nH]c(C3CCCC3)nc2n(CCCOC(=O)c2ccc(S(=O)(=O)F)cc2)c1=O` [FSCPX, reference compound], for which the “% Total CA200645 binding” value came to 57.5 ± 23.0%.

Staying with this experiment, now noted: % of control wells (1% DMSO and 25 nM CA200645); compounds at 10 µM; whole live cells expressing the A3AR; mean ± SD, three experiments in duplicate.
As to `OC(CN1CCC(Cc2ccc(F)cc2)CC1)c1ccc(Cl)cc1` (stereo not shown) [Eliprodil], the “% 25 nM CA200645 binding” value is listed as 98.8 ± 8.5%. Regarding `Cc1nc2c([nH]1)c(=O)n(C)c(=O)n2Cc1ccco1` [Furafylline], the “% 25 nM CA200645 binding” value is 49.5± 5.8%.

The same experiment, now with this note: compounds tested at 10 µM; % of control wells (1% DMSO and 25 nM CA200645); whole live cells expressing the A3AR; mean ± SD, three experiments in duplicate.
With `CCC1(C2=NCCN2)Cc2ccccc2O1` (stereo not shown) [Efaroxan hydrochloride], the “% 25 nM CA200645 binding” value was 95.2 ± 6.3%. Take `COc1cccc2c1[C@@H]1CN(CCCCn3c(=O)[nH]c4c(sc5ncc(-c6ccccc6)nc54)c3=O)C[C@@H]1CO2` [Fiduxosin hydrochloride]: the “% 25 nM CA200645 binding” value was 92.6 ± 13.4%.

Source of the values: paper PMC5733478, “A Non-imaging High Throughput Approach to Chemical Library Screening at the Unmodified Adenosine-A3 Receptor in Living Cells” (Frontiers in Pharmacology, 2017).
